Assay results taken from US20250262241A1, “METHODS TO IMPROVE STABILITY OF VIRUS TRANSDUCTION OF y8 T CELLS AND APPLICATIONS THEREOF” (UNICET BIOTECH CO. LLC., priority 2021, published 2025).

What was measured:
IKKε = molecular target: T1, IKKε (Homo sapiens, UniProt Q14164); details: cited from earlier work
T1 sequence (Q14164 1-716): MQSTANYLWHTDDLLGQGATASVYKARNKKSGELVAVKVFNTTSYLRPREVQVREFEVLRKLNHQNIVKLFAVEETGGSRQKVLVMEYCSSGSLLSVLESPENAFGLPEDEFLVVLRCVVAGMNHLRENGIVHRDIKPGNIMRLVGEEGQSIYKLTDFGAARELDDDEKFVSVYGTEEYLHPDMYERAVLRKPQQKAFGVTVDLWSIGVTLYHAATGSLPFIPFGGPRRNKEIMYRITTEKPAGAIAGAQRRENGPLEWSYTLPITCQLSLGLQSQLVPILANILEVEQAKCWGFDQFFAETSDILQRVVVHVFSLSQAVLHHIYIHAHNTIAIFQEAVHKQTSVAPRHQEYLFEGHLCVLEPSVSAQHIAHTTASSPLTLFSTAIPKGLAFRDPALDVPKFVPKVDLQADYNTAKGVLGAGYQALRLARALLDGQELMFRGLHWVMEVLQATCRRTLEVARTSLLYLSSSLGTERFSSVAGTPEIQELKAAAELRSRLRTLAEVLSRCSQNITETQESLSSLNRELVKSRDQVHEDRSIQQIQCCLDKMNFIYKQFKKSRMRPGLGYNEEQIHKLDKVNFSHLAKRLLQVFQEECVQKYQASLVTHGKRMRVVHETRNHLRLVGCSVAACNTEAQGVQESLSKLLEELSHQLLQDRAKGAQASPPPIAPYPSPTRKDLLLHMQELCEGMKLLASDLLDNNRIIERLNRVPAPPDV

γδ2 T cells [1] = type: cell-based, human; details: 0.6 uM
Description: The plates were incubated at 37° C., 5% CO2.

γδ2 T cells [2] = assay: CAR (B7H3) related lentivirus transduction of γδ2 T cells with small inhibitors: transduction rate; type: cell-based, human; details: 0.6 uM, day 10; control below 10%
Description: VSV-G pseudotyped lentiviral vectors were applied in this method. 1×10^7 293T cells were plated into a poly-D-lysine coated 100 mm dish. Next day the cells were transfected with 6 μg of pCDH-EF1-MCS-T2A-copGFP plasmid (Addgene, Plasmid #72263) or pCDH-EF1-CAR-T2A-copGFP plasmid modified from pCDH-EF1-MCS-T2A-copGFP, 4 μg of pspAx2 (Addgene, Plasmid #12260), 2 μg of pCMV-VSV-G (Addgene, Plasmid #8454) using 30 ug PEI transfection regents. After 8 hours of transfection, the cell culture medium was changed. The supernatant were collected 48 hours and 72 hours later. Concentrated the virus with Lenti-X™ Concentrator (Takara) and monitored the virus titers by transduction of 293T cells and stored the concentrated virus in −80° C. until further use.
For lentivirus transduction, 1×10^CFU lentivirus diluted in 200 ul PBS were added in a 24-well plate which were pre-coated with RetroNectin reagent (Takara) and centrifugated by 2,000 g for 2 hours at 32° C. After centrifugation, removed the supernatant and washed the plate with PBS three times slightly.
For the virus transduction of γδ2 T cells, seeded 1×10^PBMCs which were in vitro cultured after 48 hours in the γδ2 T cell culture medium mentioned above (Gibco serum free medium with rhIL-2 and ZOL). Added or not small inhibitors and mixed well and concentrated the cells by 800 g for 10 mins at 32° C. The plates were incubated at 37° C., 5% CO2. Discarded the small inhibitors regent by changing the cell culture medium 24 hours later.
Calculate the cell number by an automated cell counter and the transduction rate (GFP positive rate) was analyzed by flow cytometry every 2 to 3 days. The transduction rate was monitored in the gate of γδ2 or γδ1 T cells.

For BX795, which IC50 (IKKε) is on record?
The IC50 was 41 nM.

What about the “cell growth of γδ2 T” value (γδ2 T cells [1]) of the same substance?
Its value is “did not influence the cell growth”.

What about the transduction rate (γδ2 T cells [2]) of the same substance?
Its transduction rate is “around 40%”.
